Results: patent EP3212201B1, “NUCLEOSIDE KINASE INHIBITORS” (BCI Pharma, priority 2014, dated 2016)

Legend:
Assay in all cases: FRET-based coupled-enzyme protein kinase inhibition assay
Assay type in all cases: biochemical
Conditions in all cases: compound at 10 µM, 1% DMSO
MAPK8 (JNK1) = MAPK8 (JNK1) (Homo sapiens, UniProt P45983)
How it was run: (§1)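 Inhibition was quantified ratiometrically, as coumarin over fluorescein emission following 400 nm excitation, on a doubly labeled peptide whose cleavage by development reagent requires it to remain unphosphorylated. Kinase reactions ran 60 min at room temperature with ATP at apparent Km.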

PHKG2 = target: T1, PHKG2 (Homo sapiens, UniProt P15735)
T1 sequence (P15735 1-406): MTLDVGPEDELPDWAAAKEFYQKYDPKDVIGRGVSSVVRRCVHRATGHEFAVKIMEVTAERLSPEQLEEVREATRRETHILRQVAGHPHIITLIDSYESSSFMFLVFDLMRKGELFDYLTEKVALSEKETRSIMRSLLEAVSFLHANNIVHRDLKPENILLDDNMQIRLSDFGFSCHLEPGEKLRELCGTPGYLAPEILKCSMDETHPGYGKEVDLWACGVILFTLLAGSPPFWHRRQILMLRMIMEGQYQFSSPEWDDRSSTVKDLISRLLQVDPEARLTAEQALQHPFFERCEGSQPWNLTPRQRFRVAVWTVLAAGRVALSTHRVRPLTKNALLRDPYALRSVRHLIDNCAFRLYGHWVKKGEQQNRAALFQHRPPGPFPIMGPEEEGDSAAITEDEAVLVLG
How it was run: as §1

TEK (Tie2) = TEK (Tie2) (Homo sapiens, UniProt Q02763)
How it was run: as §1

FRAP1 (mTOR) = FRAP1 (mTOR) (Homo sapiens, UniProt P42345)
How it was run: as §1

IRAK4 = target: T2, IRAK4 (Homo sapiens, UniProt Q9NWZ3)
T2 sequence (Q9NWZ3 1-460): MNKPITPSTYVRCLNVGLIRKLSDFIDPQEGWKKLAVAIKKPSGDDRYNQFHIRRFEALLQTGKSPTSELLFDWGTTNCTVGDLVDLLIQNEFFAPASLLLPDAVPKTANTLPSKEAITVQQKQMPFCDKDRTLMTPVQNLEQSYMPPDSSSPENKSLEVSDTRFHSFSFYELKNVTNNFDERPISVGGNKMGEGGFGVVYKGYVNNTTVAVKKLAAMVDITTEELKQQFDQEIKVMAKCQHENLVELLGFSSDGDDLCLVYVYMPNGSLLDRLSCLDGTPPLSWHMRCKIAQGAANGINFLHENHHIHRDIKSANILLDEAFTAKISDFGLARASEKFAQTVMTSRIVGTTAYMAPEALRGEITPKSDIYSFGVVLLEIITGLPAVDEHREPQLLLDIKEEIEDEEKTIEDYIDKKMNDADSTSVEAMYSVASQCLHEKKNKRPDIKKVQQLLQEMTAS
How it was run: as §1

PIM1 = PIM1 (Homo sapiens, UniProt P11309)
How it was run: as §1

CSNK1G2 (CK1 gamma 2) = CSNK1G2 (CK1 gamma 2) (Homo sapiens, UniProt P78368)
How it was run: as §1

CDK1/cyclin B = CDK1/cyclin B (Homo sapiens, UniProt P06493)
How it was run: as §1

GSK3B (GSK3 beta) = GSK3B (GSK3 beta) (Homo sapiens, UniProt P49841)
How it was run: as §1

MAPK8 (JNK1), sequence (P45983 whole entry, species assumed): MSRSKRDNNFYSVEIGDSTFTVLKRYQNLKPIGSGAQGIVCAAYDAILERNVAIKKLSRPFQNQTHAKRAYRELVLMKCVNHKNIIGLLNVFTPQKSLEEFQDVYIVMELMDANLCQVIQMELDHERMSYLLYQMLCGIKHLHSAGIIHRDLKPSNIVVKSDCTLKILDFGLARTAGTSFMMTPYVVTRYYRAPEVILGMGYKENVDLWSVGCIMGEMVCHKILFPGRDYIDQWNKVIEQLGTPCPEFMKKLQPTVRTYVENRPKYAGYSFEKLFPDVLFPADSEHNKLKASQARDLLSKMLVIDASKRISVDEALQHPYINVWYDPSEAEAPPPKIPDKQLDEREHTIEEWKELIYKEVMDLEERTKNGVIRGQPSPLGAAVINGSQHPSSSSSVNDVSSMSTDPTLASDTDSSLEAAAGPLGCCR
CSNK1G2 (CK1 gamma 2), sequence (P78368 whole entry, species assumed): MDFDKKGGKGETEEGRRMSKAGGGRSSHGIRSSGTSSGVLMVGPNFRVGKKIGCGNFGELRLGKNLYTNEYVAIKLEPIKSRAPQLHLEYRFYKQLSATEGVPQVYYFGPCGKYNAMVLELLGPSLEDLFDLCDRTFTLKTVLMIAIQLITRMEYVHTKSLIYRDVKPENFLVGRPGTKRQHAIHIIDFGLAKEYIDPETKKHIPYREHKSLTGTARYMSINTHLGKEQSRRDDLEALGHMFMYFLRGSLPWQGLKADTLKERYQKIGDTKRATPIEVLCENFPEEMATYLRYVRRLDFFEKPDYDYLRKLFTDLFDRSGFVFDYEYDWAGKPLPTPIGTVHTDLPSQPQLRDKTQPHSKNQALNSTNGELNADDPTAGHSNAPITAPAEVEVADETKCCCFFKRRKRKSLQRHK
GSK3B (GSK3 beta), sequence (P49841 whole entry, species assumed): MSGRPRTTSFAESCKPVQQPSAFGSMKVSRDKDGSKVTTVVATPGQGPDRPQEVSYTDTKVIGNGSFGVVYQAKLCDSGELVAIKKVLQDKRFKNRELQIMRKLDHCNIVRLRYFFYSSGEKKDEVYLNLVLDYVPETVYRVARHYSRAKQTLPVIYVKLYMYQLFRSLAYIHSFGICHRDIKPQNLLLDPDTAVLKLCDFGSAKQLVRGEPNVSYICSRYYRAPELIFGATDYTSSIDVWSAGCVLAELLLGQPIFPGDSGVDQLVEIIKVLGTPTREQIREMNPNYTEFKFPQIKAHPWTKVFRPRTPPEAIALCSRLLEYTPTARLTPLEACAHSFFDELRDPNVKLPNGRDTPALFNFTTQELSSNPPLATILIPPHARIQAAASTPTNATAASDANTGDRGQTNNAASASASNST
CDK1/cyclin B, sequence (P06493 whole entry, species assumed): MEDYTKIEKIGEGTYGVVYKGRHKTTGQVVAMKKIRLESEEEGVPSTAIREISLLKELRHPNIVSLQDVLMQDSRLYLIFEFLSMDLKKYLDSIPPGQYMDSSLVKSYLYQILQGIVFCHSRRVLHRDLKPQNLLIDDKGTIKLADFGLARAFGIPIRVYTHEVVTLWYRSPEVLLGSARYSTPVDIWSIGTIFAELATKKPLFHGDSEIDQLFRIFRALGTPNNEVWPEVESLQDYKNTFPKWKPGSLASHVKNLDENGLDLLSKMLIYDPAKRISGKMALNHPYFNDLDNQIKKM
CDK1/cyclin B, sequence (P14635 whole entry partner, species assumed): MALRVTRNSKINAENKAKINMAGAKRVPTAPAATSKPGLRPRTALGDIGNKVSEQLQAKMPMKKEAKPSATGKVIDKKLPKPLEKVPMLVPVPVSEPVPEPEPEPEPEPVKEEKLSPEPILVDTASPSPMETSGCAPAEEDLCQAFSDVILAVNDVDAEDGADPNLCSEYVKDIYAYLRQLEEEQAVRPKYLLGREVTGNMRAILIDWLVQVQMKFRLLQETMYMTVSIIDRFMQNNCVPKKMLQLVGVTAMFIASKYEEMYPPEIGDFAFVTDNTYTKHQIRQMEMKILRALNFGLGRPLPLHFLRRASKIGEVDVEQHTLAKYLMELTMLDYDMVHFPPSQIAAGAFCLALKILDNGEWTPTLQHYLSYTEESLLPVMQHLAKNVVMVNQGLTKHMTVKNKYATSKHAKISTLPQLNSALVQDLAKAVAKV
TEK (Tie2), sequence (Q02763 23-1124, species assumed): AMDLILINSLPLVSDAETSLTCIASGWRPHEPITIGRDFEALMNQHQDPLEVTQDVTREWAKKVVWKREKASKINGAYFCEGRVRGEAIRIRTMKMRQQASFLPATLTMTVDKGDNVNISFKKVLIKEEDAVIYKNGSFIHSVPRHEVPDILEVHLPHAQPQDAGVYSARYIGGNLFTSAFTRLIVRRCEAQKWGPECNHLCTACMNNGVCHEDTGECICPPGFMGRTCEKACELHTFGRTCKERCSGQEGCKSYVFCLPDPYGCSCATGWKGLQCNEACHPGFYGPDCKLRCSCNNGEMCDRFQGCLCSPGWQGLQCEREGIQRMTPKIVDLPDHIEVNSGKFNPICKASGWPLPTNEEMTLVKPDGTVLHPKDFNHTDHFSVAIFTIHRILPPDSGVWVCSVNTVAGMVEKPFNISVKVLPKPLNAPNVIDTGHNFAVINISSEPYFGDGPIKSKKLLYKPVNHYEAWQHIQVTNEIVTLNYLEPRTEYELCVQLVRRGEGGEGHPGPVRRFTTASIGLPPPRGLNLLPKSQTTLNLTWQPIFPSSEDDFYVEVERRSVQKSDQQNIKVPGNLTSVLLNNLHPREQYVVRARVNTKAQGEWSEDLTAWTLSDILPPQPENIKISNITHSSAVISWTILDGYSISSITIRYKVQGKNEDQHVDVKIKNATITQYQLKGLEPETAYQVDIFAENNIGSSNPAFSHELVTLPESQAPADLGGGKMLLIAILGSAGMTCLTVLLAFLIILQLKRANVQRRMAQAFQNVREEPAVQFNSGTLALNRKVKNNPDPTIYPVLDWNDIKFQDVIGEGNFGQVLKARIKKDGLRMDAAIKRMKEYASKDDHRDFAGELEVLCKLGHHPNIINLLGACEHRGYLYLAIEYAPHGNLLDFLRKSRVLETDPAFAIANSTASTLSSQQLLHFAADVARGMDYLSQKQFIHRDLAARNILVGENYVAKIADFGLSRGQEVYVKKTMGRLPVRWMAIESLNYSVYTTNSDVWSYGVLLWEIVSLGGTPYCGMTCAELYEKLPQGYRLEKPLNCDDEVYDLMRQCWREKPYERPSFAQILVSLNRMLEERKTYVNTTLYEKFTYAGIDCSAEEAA
PIM1, sequence (P11309 whole entry, species assumed): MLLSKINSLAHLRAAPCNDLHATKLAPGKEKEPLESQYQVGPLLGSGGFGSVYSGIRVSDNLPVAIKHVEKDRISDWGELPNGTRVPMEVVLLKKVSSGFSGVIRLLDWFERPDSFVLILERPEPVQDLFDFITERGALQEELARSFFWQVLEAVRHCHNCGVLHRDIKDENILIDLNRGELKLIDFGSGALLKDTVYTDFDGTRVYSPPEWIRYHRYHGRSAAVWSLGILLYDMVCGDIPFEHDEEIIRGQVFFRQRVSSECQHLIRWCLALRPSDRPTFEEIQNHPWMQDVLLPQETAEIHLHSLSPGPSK

inhibition at 10 µM (MAPK8 (JNK1)) [%]	inhibition at 10 µM (PHKG2) [%]	inhibition at 10 µM (TEK (Tie2)) [%]	inhibition at 10 µM (FRAP1 (mTOR)) [%]	inhibition at 10 µM (IRAK4) [%]	inhibition at 10 µM (PIM1) [%]	inhibition at 10 µM (CSNK1G2 (CK1 gamma 2)) [%]	inhibition at 10 µM (CDK1/cyclin B) [%]	inhibition at 10 µM (GSK3B (GSK3 beta)) [%]	Structure (SMILES)
6	0	6	-3	6	1	7	11	8	Nc1ncnc2c1ncn2[C@@H]1O[C@H](COC(=O)N[C@@H]2CCN(Cc3ccccc3)C2)[C@@H](O)[C@H]1O [Compound C10]
3	-4	-4	-3	-2	3	-5	3	-6	Nc1ncnc2c1ncn2[C@@H]1O[C@H](COC(=O)N2CCC[C@H]2CO)[C@@H](O)[C@H]1O [Compound C9]
5	-6	0	0	1	-6	2	7	3	Nc1ncnc2c1ncn2[C@@H]1O[C@H](COC(=O)NCCN2CCCC2=O)[C@@H](O)[C@H]1O [Compound C22]
6	-2	4	-4	-2	7	10	11	1	Nc1ncnc2c1ncn2[C@@H]1O[C@H](COC(=O)N2CCC(Cc3ccc(F)cc3)C2)[C@@H](O)[C@H]1O (stereo partly drawn) [Compound C66]
5	-2	-2	-4	-5	-4	0	1	-2	Nc1ncnc2c1ncn2[C@@H]1O[C@H](COC(=O)N2CCN(C(=O)N3CCOCC3)CC2)[C@@H](O)[C@H]1O [Compound C89]
0	-3	6	5	-3	-7	6	7	6	CC(C)N1CCC(NC(=O)OC[C@H]2O[C@@H](n3cnc4c(N)ncnc43)[C@H](O)[C@@H]2O)CC1 [Compound C19]
7	1	2	-2	0	-1	-1	5	5	Nc1ncnc2c1ncn2[C@@H]1O[C@H](COC(=O)N2CCS(=O)(=O)CC2)[C@@H](O)[C@H]1O [Compound C100]
4	-1	58	2	-17	6	15	8	-1	CS(=O)(=O)N1CC2(CCN(C(=O)OC[C@H]3O[C@@H](n4cnc5c(N)ncnc54)[C@H](O)[C@@H]3O)CC2)c2ccccc21 [Compound C98]
4	1	0	2	-1	0	0	3	-5	CN(C)CCNC(=O)OC[C@H]1O[C@@H](n2cnc3c(N)ncnc32)[C@H](O)[C@@H]1O [Compound C85]
8	1	1	-6	0	5	0	4	0	N#CCCN1CCN(C(=O)OC[C@H]2O[C@@H](n3cnc4c(N)ncnc43)[C@H](O)[C@@H]2O)CC1 [Compound C70]
8	-1	-4	-6	2	-5	0	8	6	Nc1ncnc2c1ncn2[C@@H]1O[C@H](COC(=O)N2CCN(CCc3ccccc3)CC2)[C@@H](O)[C@H]1O [Compound C26]
14	-2	12	-5	3	-8	7	8	8	C[C@@H](NC(=O)OC[C@H]1O[C@@H](n2cnc3c(N)ncnc32)[C@H](O)[C@@H]1O)c1ccc(Cl)cc1 [Compound C4]
2	0	5	-1	13	1	11	9	4	Nc1ncnc2c1ncn2[C@@H]1O[C@H](COC(=O)N2CCN(Cc3ccccc3)CC2CO)[C@@H](O)[C@H]1O (stereo partly drawn) [Compound C13]
-2	0	0	5	7	8	-4	7	5	CN1CCN(CCNC(=O)OC[C@H]2O[C@@H](n3cnc4c(N)ncnc43)[C@H](O)[C@@H]2O)CC1 [Compound C46]
13	-3	-3	5	-8	11	13	4	21	Nc1ncnc2c1ncn2[C@@H]1O[C@H](COC(=O)NC[C@H](O)CO)[C@@H](O)[C@H]1O [Compound C8]
12	-3	3	-2	-2	-2	-2	-2	7	Nc1ncnc2c1ncn2[C@@H]1O[C@H](COC(=O)NCCCc2nc3ccccc3[nH]2)[C@@H](O)[C@H]1O [Compound C1]
